Reference: ChEMBL document CHEMBL4602687, “Dual Binding to Orthosteric and Allosteric Sites Enhances the Anticancer Activity of a TRAP1-Targeting Drug” (J Med Chem, 2020)
Substitutions are numbered along the chain they refer to. Calls of active or inactive are those of the source. No cut-off for these calls is given here.

Experiments:
[1] = target: T1, Heat shock protein 75 kDa, mitochondrial (Homo sapiens) (UniProt Q12931); experiment: Stimulation of recombinant wild-type human TRAP1 ATPase activity expressed in Escherichia coli BL21 (DE3) at 2 to 5 uM preincubated for 0.5 hrs followed by 2 mM ATP addition and measured after 3 hrs by PiColorLock Gold reagent based colorimetric assay relative to control
T1 sequence (whole entry): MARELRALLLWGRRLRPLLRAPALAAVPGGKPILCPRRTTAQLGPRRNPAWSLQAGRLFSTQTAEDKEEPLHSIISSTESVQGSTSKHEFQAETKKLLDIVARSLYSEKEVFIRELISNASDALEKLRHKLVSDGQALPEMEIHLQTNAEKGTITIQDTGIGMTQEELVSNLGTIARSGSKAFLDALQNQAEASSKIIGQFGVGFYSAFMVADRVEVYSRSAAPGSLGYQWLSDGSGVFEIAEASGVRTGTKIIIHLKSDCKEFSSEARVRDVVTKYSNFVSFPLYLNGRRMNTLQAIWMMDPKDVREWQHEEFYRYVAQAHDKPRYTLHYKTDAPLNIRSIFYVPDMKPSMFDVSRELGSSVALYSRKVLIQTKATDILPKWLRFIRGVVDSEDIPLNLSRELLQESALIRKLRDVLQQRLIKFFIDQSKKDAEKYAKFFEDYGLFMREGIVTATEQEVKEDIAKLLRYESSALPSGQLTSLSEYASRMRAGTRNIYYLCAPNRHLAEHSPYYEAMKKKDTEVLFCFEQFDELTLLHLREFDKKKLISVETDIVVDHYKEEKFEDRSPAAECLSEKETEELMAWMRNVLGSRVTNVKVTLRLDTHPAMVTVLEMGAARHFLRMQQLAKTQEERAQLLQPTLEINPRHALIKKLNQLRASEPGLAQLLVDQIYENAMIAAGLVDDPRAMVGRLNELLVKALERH

[2] = target: T1, Heat shock protein 75 kDa, mitochondrial (Homo sapiens); experiment: Inhibition of recombinant wild-type human TRAP1 expressed in Escherichia coli BL21 (DE3) assessed as intrinsic fluorescence quenching of tryptophan residues at 10 uM measured after 1 hr by fluorescence spectrophotometric method
[3] = system: T2, Heat shock protein 75 kDa, mitochondrial (Homo sapiens), Q12931 [R114E,E403K]; experiment: Stimulation of recombinant […] human TRAP1 R114E/E403K mutant ATPase activity expressed in Escherichia coli BL21 (DE3) up to 20 uM preincubated for 0.5 hrs followed by ATP addition and measured after 3 hrs by PiColorLock Gold reagent based colorimetric assay
T2 sequence (whole entry): T1 sequence (whole entry) with R114E, E403K

[4] = system: T3, Heat shock protein 75 kDa, mitochondrial (Homo sapiens), Q12931 [R114E,R402Q]; experiment: Stimulation of recombinant […] human TRAP1 R114E/R402Q mutant ATPase activity expressed in Escherichia coli BL21 (DE3) up to 20 uM preincubated for 0.5 hrs followed by ATP addition and measured after 3 hrs by PiColorLock Gold reagent based colorimetric assay
T3 sequence (whole entry): T1 sequence (whole entry) with R114E, R402Q

PC-3 = experiment: Cytotoxicity against human PC3 cells assessed as reduction in cell viability up to 3 uM measured after 24 hrs by MTT assay; format: functional, cell-based
LN-229 = experiment: Cytotoxicity against human LN229 cells assessed as reduction in cell viability up to 3 uM measured after 24 hrs by MTT assay; format: functional, cell-based
Mus musculus = experiment: In vivo inhibition of TRAP1 in nude mouse xenografted with human NCI-H460 cells assessed as increase in AMPK phosphorylation at 5 mg/kg, ip administered daily by Western blot analysis; format: functional, organism-based
NCI-H460 = experiment: Antitumor activity against human NCI-H460 cells xenografted in nude mouse assessed as induction of tumor cell death by measuring increase in cleaved caspase-9 expression at 5 mg/kg, ip administered daily by Western blot analysis; format: functional, organism-based

fold change (FC) [1]: 2
inhibition [2]: Active
Activity [3]: Active
Activity [4]: inactive
Compound: Nc1ncnc2c1nc(Sc1cc3c(cc1I)OCO3)n2CCCCCCCCCC[P+](c1ccccc1)(c1ccccc1)c1ccccc1
Activity (PC-3): Active
Activity (LN-229): Active
inhibition (Mus musculus): Active
Activity (NCI-H460): Active
